Some results are limits rather than exact numbers.

Among the data in patent US20170121315A1, “HETEROBICYCLICALLY SUBSTITUTED 4-OXOBUTANE ACID DERIVATIVES AND USE THEREOF” (priority 2014, published 2017) are IC50 values, retold here.

What all share (assay type): biochemical
In one experiment the target is T1, MMP-1 (Homo sapiens, UniProt P03956).
T1 construct: purchased R&D Systems 901-MP
T1 sequence (P03956 100-469): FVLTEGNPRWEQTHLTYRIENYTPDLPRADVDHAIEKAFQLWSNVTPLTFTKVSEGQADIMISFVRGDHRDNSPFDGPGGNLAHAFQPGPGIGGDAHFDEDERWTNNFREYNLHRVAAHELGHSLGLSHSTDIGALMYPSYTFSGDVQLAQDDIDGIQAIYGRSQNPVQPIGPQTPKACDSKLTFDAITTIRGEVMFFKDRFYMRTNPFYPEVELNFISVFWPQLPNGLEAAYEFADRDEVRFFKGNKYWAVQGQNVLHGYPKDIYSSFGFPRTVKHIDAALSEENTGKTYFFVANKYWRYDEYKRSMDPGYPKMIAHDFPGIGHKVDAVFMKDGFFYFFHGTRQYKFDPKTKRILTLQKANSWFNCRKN
The experiment in a line: In vitro MMP-1 inhibition test. Particulars: human MMP-1. The source says:
(§1) The MMP-mediated amidolytic cleavage of a suitable peptide substrate leads to an increase in fluorescent light here too. The signal intensity of the fluorescent light is directly proportional to the enzyme activity. The active concentration of a test compound at which half the enzyme is inhibited (50% signal intensity of the fluorescent light) is reported as the IC50 value.
(§2) Recombinant MMP-1 (R&D Systems, 901-MP) is chemically activated in accordance with the manufacturer's instructions using APMA. 1 μl of the test compound to be analysed (as a solution in DMSO, suitable concentrations e.g. 1 nM to 30 μM) is pipetted into 24 μl of activated enzyme (final concentration e.g. 2 nM) in reaction buffer (50 mM Tris/HCl pH 7.5, 10 mM CaCl2, 150 mM NaCl, 0.05% Brij®-35) in a white 384-hole microtiter plate (MTP). The enzymatic reaction is started by adding the intramolecularly quenched Mca-Pro-Leu-Gly-Leu-Dpa(Dnp)-Ala-Arg-NH2 substrate (final concentration e.g. 10 μM; R&D Systems, ES-001), so as to result in a total test volume of 50 μl. The course of the MMP-1 reaction is measured by measuring the fluorescence intensity (excitation 320 nm, emission 410 nm) over a suitable period of time (e.g. over 120 min at a temperature of 32° C.).

The target in the next experiment is T2, MMP-10 (Homo sapiens, UniProt P09238).
T2 construct: purchased R&D Systems 910-MP
T2 sequence (P09238 99-476): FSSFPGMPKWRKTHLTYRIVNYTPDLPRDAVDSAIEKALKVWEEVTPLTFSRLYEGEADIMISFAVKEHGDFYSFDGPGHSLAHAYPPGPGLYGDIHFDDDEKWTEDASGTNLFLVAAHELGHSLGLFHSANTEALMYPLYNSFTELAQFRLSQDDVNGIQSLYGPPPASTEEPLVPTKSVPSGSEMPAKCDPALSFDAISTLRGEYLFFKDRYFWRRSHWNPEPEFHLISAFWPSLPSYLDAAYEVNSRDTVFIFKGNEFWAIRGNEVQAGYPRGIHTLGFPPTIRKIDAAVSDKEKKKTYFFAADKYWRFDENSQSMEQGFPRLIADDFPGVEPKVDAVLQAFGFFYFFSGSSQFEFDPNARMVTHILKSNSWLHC
Kind of experiment: In vitro MMP-10 inhibition test. Particulars: human MMP-10.
Excerpt: as §1
as §2, with “MMP-10” for “MMP-1”, “910-MP)” for “901-MP)”, “Mca-Arg-Pro-Lys-Pro-Val-Glu-Nval-Trp-Arg-Lys(Dnp)-NH2” for “Mca-Pro-Leu-Gly-Leu-Dpa(Dnp)-Ala-Arg-NH2”, “ES-002),” for “ES-001),”

A further experiment addresses T3, MMP-2 (Homo sapiens, UniProt P08253).
T3 construct: purchased R&D Systems 902-MP
T3 sequence (P08253 110-660): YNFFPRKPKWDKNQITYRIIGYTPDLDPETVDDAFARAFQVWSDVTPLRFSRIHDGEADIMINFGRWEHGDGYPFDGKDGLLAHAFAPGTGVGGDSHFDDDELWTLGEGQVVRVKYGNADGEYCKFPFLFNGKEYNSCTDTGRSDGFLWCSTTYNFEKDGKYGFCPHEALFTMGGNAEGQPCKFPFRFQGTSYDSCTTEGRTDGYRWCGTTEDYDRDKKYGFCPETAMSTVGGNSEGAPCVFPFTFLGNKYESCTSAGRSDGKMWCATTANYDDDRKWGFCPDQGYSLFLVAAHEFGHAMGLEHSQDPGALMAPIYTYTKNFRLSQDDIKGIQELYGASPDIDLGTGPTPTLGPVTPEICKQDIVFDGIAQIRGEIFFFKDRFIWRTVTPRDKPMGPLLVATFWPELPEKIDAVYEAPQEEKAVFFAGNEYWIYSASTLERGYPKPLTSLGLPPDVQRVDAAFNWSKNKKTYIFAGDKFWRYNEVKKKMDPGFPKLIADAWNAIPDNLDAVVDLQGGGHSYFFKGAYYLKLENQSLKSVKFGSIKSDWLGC
The experiment in a line: In vitro MMP-2 inhibition test. Particulars: human MMP-2.
Excerpt: as §1
as §2, with “MMP-2” for “MMP-1”, “902-MP)” for “901-MP)”

Take `O=C(CC(CCn1nnc2ccccc2c1=O)C(=O)O)c1cc2cc(OCCc3ccccc3)ccc2o1` (single isomer, unassigned; (+)) [Example 21, (+)-4-Oxo-2-[2-(4-oxo-1,2,3-benzotriazin-3(4H)-yl)ethyl]-4-[5-(2-phenylethoxy)-1-benzofur-2-yl]butanoic acid]: the figures for the IC50 on MMP-1, against MMP-10 and against MMP-2 were above 40 µM, 13 µM and 1.9 µM, respectively.

Regarding `O=C(CC(CCn1nnc2ccccc2c1=O)C(=O)O)c1cc2cc(OCc3ccc(C(F)(F)F)cc3)ccc2o1` (racemic) [Example 44, (+/−)-4-Oxo-2-[2-(4-oxo-1,2,3-benzotriazin-3(4H)-yl)ethyl]-4-(5-{[4-(trifluoromethyl)benzyl]oxy}-1-benzofur-2-yl)butanoic acid], the IC50 against MMP-1 was above 40 µM; at MMP-10, 29 µM; at MMP-2, above 40 µM.

For the compound `O=C(CC(CCn1nnc2ccccc2c1=O)C(=O)O)c1cc2cc(OCCC3CCOCC3)ccc2o1` (racemic) [Example 6, (+/−)-4-Oxo-2-[2-(4-oxo-1,2,3-benzotriazin-3(4H)-yl)ethyl]-4-{5-[2-(tetrahydro-2H-pyran-4-yl)ethoxy]-1-benzofur-2-yl}butanoic acid], the IC50 at MMP-1 was above 40 µM; against MMP-10, 7 µM; at MMP-2 it was 0.43 µM.

In the case of `O=C(CC(CCn1nnc2ccccc2c1=O)C(=O)O)c1cc2cc(OCCC3CCCC3)ccc2o1` (racemic) [Example 7, (+/−)-4-[5-(2-Cyclopentylethoxy)-1-benzofur-2-yl]-4-oxo-2-[2-(4-oxo-1,2,3-benzotriazin-3(4H)-yl)ethyl]butanoic acid], the IC50 against MMP-1 is above 40 µM; on MMP-10 it was 9.3 µM; at MMP-2 it was 0.92 µM.

For `CCCCCCOc1ccc2c(C(=O)CC(CCn3nnc4ccccc4c3=O)C(=O)O)coc2c1` (single isomer, unassigned; (+)) [Example 100, (+)-4-[6-(Hexyloxy)-1-benzofur-3-yl]-4-oxo-2-[2-(4-oxo-1,2,3-benzotriazin-3(4H)-yl)ethyl]butanoic acid], the IC50 was above 40 µM against MMP-1, 11 µM against MMP-10 and 0.14 µM at MMP-2.

Regarding `O=C(CC(CCn1nnc2ccccc2c1=O)C(=O)O)c1cc2cc(OCCCC(F)(F)F)ccc2o1` (single isomer, unassigned; enantiomer 2) [Example 13, (+)-4-Oxo-2-[2-(4-oxo-1,2,3-benzotriazin-3(4H)-yl)ethyl]-4-[5-(4,4,4-trifluorobutoxy)-1-benzofur-2-yl]butanoic acid (enantiomer 2)], the IC50 at MMP-1 is above 40 µM; against MMP-10, 15 µM; at MMP-2 it was 1.3 µM.

Regarding `O=C(O)[C@@H]1[C@@H](Cn2nnc3ccc(C(F)(F)F)cc3c2=O)CC[C@H]1C(=O)c1cc2cc(OCCc3ccccc3)ccc2o1` (single isomer, unassigned; enantiomer 2) [Example 159, (+)-(1RS,2SR,5RS)-2-{[4-Oxo-6-(trifluoromethyl)-1,2,3-benzotriazin-3(4H)-yl]methyl}-5-{[5-(2-phenylethoxy)-1-benzofur-2-yl]carbonyl}cyclopentanecarboxylic acid (enantiomer 2)], the IC50 is above 40 µM against MMP-1, 0.34 µM against MMP-10 and 1.7 µM against MMP-2.

With `O=C(CC(CCn1nnc2ccccc2c1=O)C(=O)O)c1coc2cc(OCC3CCCCC3)ccc12` (single isomer, unassigned; (+)) [Example 82, (+)-4-[6-(Cyclohexylmethoxy)-1-benzofur-3-yl]-4-oxo-2-[2-(4-oxo-1,2,3-benzotriazin-3(4H)-yl)ethyl]butanoic acid], the IC50 is above 40 µM against MMP-1, 6.8 µM against MMP-10 and 0.17 µM against MMP-2.

In the case of `O=C(CC(CCn1nnc2ccccc2c1=O)C(=O)O)c1noc2cc(OCc3ccccc3)ccc12` (racemic) [Example 145, (+/−)-4-[6-(Benzyloxy)-1,2-benzoxazol-3-yl]-4-oxo-2-[2-(4-oxo-1,2,3-benzotriazin-3(4H)-yl)ethyl]butanoic acid], the IC50 was above 40 µM against MMP-1, 10 µM against MMP-10 and 0.43 µM against MMP-2.

For `O=C(CC(CCn1nnc2ccccc2c1=O)C(=O)O)c1noc2cc(OCC3CC3)ccc12` (racemic) [Example 150, (+/−)-4-[6-(Cyclopropylmethoxy)-1,2-benzoxazol-3-yl]-4-oxo-2-[2-(4-oxo-1,2,3-benzotriazin-3(4H)-yl)ethyl]butanoic acid], the values for the IC50 against MMP-1, at MMP-10 and against MMP-2 were above 40 µM, above 40 µM and 0.51 µM, respectively.

Consider `O=C(CC(CCn1nnc2ccccc2c1=O)C(=O)O)c1cc2ccc(OCCc3ccccc3)cc2s1` (racemic) [Example 114, (+/−)-4-Oxo-2-[2-(4-oxo-1,2,3-benzotriazin-3(4H)-yl)ethyl]-4-[6-(2-phenylethoxy)-1-benzothiophen-2-yl]butanoic acid], for which the IC50 against MMP-1 was above 40 µM; on MMP-10, 3.4 µM; against MMP-2 it was 0.083 µM.

As for `O=C(CC(CCn1nnc2ccccc2c1=O)C(=O)O)c1cc2cc(OCCc3ccc(Cl)cc3)ccc2o1` (racemic) [Example 2, (+/−)-4-{5-[2-(4-Chlorophenyl)ethoxy]-1-benzofur-2-yl}-4-oxo-2-[2-(4-oxo-1,2,3-benzotriazin-3(4H)-yl)ethyl]butanoic acid], the IC50 at MMP-1 is above 40 µM; at MMP-10, 16 µM; against MMP-2 it was 4.6 µM.

For the compound `O=C(CC(CCn1nnc2ccccc2c1=O)C(=O)O)c1coc2cc(OCC3CCCC3)ccc12` (single isomer, unassigned; (+)) [Example 80, (+)-4-[6-(Cyclopentylmethoxy)-1-benzofur-3-yl]-4-oxo-2-[2-(4-oxo-1,2,3-benzotriazin-3(4H)-yl)ethyl]butanoic acid], the IC50 against MMP-1 is above 40 µM; against MMP-10, 12 µM; against MMP-2, 0.49 µM.

Consider `O=C(C[C@H](CCn1nnc2ccccc2c1=O)C(=O)O)c1noc2cc(OCC3CCOCC3)ccc12` (single isomer, unassigned; enantiomer 2) [Example 135], for which the IC50 is above 40 µM against MMP-1, 9 µM on MMP-10 and 0.27 µM against MMP-2.

What is called IC50 is the concentration needed to halve the response being measured. A higher IC50 goes with weaker potency in that assay.
